Reference: patent US12319676B2, “Substituted amide compounds useful as farnesoid X receptor modulators” (BRISTOL-MYERS SQUIBB COMPANY, priority 2019, dated 2025)

Biological target: T1, human FXR (Homo sapiens, UniProt Q96RI1)
T1 construct: expressed in transfected cells; host or cells: HEK293 cells stably carrying a 5xGal4 response element-luciferase reporter, transiently transfected with pcDNA3.1-Gal4-FXR
T1 sequence (Q96RI1 262-486 limits assumed): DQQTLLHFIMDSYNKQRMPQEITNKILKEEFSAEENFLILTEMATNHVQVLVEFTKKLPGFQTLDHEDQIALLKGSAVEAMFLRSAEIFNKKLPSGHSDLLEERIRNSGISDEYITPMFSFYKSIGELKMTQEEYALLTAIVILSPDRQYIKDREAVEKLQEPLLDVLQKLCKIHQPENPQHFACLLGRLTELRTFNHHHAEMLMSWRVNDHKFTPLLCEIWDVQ
Test: transient human FXR/Gal4-luciferase reporter assay
Format: cell-based
Details: Gal4-hFXR fusion construct, luciferase reporter in HEK293 cells; overnight incubation; response as percentage of 8 μM GW-4064 control
Procedure: The exemplified compounds of the present invention were tested in the transient human FXR/Gal4-luciferase reporter assay, and assay results were reported in Table 1 and Examples 1 to 3 together with other analytical data. A Gal4-hFXR fusion construct reporter system was used as the primary assay to characterize compound activity. A construct including 5 copies of the Gal4 promoter response element upstream of a firefly luciferase reporter cDNA was stably expressed in HEK293 cells. This reporter cell line was maintained in Dulbecco's Modified Eagle's medium (DMEM; Gibco) supplemented with 1% penicillin-streptomycin (P/S) solution, 500 μg/mL Zeocin and 10% charcoal/dextran-treated fetal bovine serum (cs-FBS) at 37° C. in a humidified 5% CO2 atmosphere. Another plasmid was constructed in which the human cytomegalovirus promoter in the pcDNA3.1 vector directs the expression of the cDNA encoding a fusion protein comprised of the DNA binding domain from the Gal4 transcription factor fused to the ligand binding domain from human FXR. The day prior to transfection, the reporter cells in culture are detached from the plate with trypsin and plated into a T75 flask at a sufficient density to achieve approximately 90% confluence the next morning. The transfection reagents are prepared by separately diluting 25 μg of the pcDNA3.1-Gal4-FXR plasmid into 1.87 mL of Opti-MEM (Thermo-Fisher), and 40 μL of Lipofectamine 2000 (Thermo-Fisher) into 1.87 mL of Opti-MEM, and then adding the diluted DNA solution into the diluted Lipofectamine 2000 solution and incubating at room temperature for 15-20 minutes. The mixture is further diluted with 10 mL of a solution comprised of DMEM, 10% cs-FBS, and 1% P/S immediately prior to transferring to the cells. The maintenance culture media is aspirated from the cells and the final transfection mixture is added before the cells are incubated overnight at 37° C. in a humidified 5% CO2 atmosphere. This protocol can be scaled up, and the transiently transfected cells can be cryopreserved in an assay-ready format. For compound testing, 100 nL of the compounds (serial dilutions in DMSO) are dispensed with an Echo acoustic dispenser (Labcyte) into the wells of a Corning/Costar clear bottom 384-well white plate. The transfected cells are harvested, counted, and diluted such that 10-25,000 cells in 25 μL are plated into each well of the 384-well compound assay plate. The compound-treated cells are incubated overnight at 37° C. in a humidified 5% CO2 atmosphere. The next morning 25 μL of Steady-Glo (Promega) are added to each well of the plate, the mixture is incubated for 15 min. with shaking, and luminescence is measured on an Envision (Perkin Elmer) plate reader. Background counts from cells treated with DMSO alone are subtracted from all raw counts, and the corrected values are converted to a percentage of the control response attained with 8 μM GW-4064.

Row | EC50 [nM] | Compound
1 | 261 | CC(F)(F)c1nc(C23CCC(CN(C(=O)C4CC4(F)F)c4cccc(Br)c4)(CC2)CC3)no1 (racemic) [Example 31, N-(3-bromophenyl)-N-((4-(5-(1,1-difluoroethyl)-1,2,4-oxadiazol-3-yl)bicyclo[2.2.2]octan-1-yl)methyl)-2,2-difluorocyclopropane-1-carboxamide]
2 | 11 | CC(F)(F)c1nc(C23CCC(CN(C(=O)C45CC(F)(C4)C5)c4cccc(Cl)c4)(CC2)CC3)no1 [Example 1, N-(3-chlorophenyl)-N-((4-(5-(1,1-difluoroethyl)-1,2,4-oxadiazol-3-yl)bicyclo[2.2.2]octan-1-yl)methyl)-3-fluorobicyclo[1.1.1]pentane-1-carboxamide]
3 | 64 | CC(F)(F)c1nc(C23CCC(CN(c4cccc(Cl)c4)C(=O)[C@H]4C[C@](O)(C(F)(F)F)C4)(CC2)CC3)no1 [Example 2, N-(3-chlorophenyl)-N-((4-(5-(1,1-difluoroethyl)-1,2,4-oxadiazol-3-yl)bicyclo[2.2.2]octan-1-yl)methyl)-3-hydroxy-3-(trifluoromethyl)cyclobutane-1-carboxamide]
4 | 133 | CC(F)(F)c1nc(C23CCC(CN(C(=O)C4CCC(F)(F)CC4)c4cccc(Cl)c4)(CC2)CC3)no1 [Example 3, N-(3-chlorophenyl)-N-((4-(5-(1,1-difluoroethyl)-1,2,4-oxadiazol-3-yl)bicyclo[2.2.2]octan-1-yl)methyl)-4,4-difluorocyclohexane-1-carboxamide]
5 | 12 | CC(F)(F)c1nc(C23CCC(CN(C(=O)C45CC(F)(C4)C5)c4cccc(C#N)c4)(CC2)CC3)no1 [Example 4, N-(3-cyanophenyl)-N-((4-(5-(1,1-difluoroethyl)-1,2,4-oxadiazol-3-yl)bicyclo[2.2.2]octan-1-yl)methyl)-3-fluorobicyclo[1.1.1]pentane-1-carboxamide]
6 | 164 | CC(F)(F)c1nc(C23CCC(CN(C(=O)C4CC(O)(C(F)(F)F)C4)c4cccc(C#N)c4)(CC2)CC3)no1 (centres unmarked) [Example 5, N-(3-cyanophenyl)-N-((4-(5-(1,1-difluoroethyl)-1,2,4-oxadiazol-3-yl)bicyclo[2.2.2]octan-1-yl)methyl)-3-hydroxy-3-(trifluoromethyl)cyclobutane-1-carboxamide]
7 | 106 | CC(F)(F)c1nc(C23CCC(CN(C(=O)C4CCC(F)(F)CC4)c4cccc(C#N)c4)(CC2)CC3)no1 [Example 6, N-(3-cyanophenyl)-N-((4-(5-(1,1-difluoroethyl)-1,2,4-oxadiazol-3-yl)bicyclo[2.2.2]octan-1-yl)methyl)-4,4-difluorocyclohexane-1-carboxamide]
8 | 30 | CC(F)(F)c1nc(C23CCC(CN(C(=O)C45CC(F)(C4)C5)c4cccc(F)c4)(CC2)CC3)no1 [Example 7, N-((4-(5-(1,1-difluoroethyl)-1,2,4-oxadiazol-3-yl)bicyclo[2.2.2]octan-1-yl)methyl)-3-fluoro-N-(3-fluorophenyl)bicyclo[1.1.1]pentane-1-carboxamide]
9 | 462 | CC(F)(F)c1nc(C23CCC(CN(c4cccc(F)c4)C(=O)[C@H]4C[C@](O)(C(F)(F)F)C4)(CC2)CC3)no1 [Example 8, N-((4-(5-(1,1-difluoroethyl)-1,2,4-oxadiazol-3-yl)bicyclo[2.2.2]octan-1-yl)methyl)-N-(3-fluorophenyl)-3-hydroxy-3-(trifluoromethyl)cyclobutane-1-carboxamide]
10 | 451 | CC(F)(F)c1nc(C23CCC(CN(C(=O)C4CCC(F)(F)CC4)c4cccc(F)c4)(CC2)CC3)no1 [Example 9, N-((4-(5-(1,1-difluoroethyl)-1,2,4-oxadiazol-3-yl)bicyclo[2.2.2]octan-1-yl)methyl)-4,4-difluoro-N-(3-fluorophenyl)cyclohexane-1-carboxamide]
11 | 124 | CC(F)(F)c1nc(C23CCC(CN(C(=O)C45CC(F)(C4)C5)c4ccc(F)c(F)c4)(CC2)CC3)no1 [Example 10, N-((4-(5-(1,1-difluoroethyl)-1,2,4-oxadiazol-3-yl)bicyclo[2.2.2]octan-1-yl)methyl)-N-(3,4-difluorophenyl)-3-fluorobicyclo[1.1.1]pentane-1-carboxamide]
12 | 881 | CC(F)(F)c1nc(C23CCC(CN(C(=O)C4CCC(F)(F)CC4)c4ccc(F)c(F)c4)(CC2)CC3)no1 [Example 11, N-((4-(5-(1,1-difluoroethyl)-1,2,4-oxadiazol-3-yl)bicyclo[2.2.2]octan-1-yl)methyl)-N-(3,4-difluorophenyl)-4,4-difluorocyclohexane-1-carboxamide]
13 | 73 | CC(F)(F)c1nc(C23CCC(CN(C(=O)C45CC(F)(C4)C5)c4cccc(OC(F)F)c4)(CC2)CC3)no1 [Example 12, N-((4-(5-(1,1-difluoroethyl)-1,2,4-oxadiazol-3-yl)bicyclo[2.2.2]octan-1-yl)methyl)-N-(3-(difluoromethoxy)phenyl)-3-fluorobicyclo[1.1.1]pentane-1-carboxamide]
14 | 302 | CC(F)(F)c1nc(C23CCC(CN(c4cccc(OC(F)F)c4)C(=O)[C@H]4C[C@](O)(C(F)(F)F)C4)(CC2)CC3)no1 [Example 13, N-((4-(5-(1,1-difluoroethyl)-1,2,4-oxadiazol-3-yl)bicyclo[2.2.2]octan-1-yl)methyl)-N-(3-(difluoromethoxy)phenyl)-3-hydroxy-3-(trifluoromethyl)cyclobutane-1-carboxamide]
15 | 29 | CC(F)(F)c1nc(C23CCC(CN(C(=O)C45CC(F)(C4)C5)c4cccc(C(F)(F)F)c4)(CC2)CC3)no1 [Example 14, N-((4-(5-(1,1-difluoroethyl)-1,2,4-oxadiazol-3-yl)bicyclo[2.2.2]octan-1-yl)methyl)-3-fluoro-N-(3-(trifluoromethyl)phenyl)bicyclo[1.1.1]-pentane-1-carboxamide]
16 | 176 | CC(F)(F)c1nc(C23CCC(CN(c4cccc(C(F)(F)F)c4)C(=O)[C@H]4C[C@](O)(C(F)(F)F)C4)(CC2)CC3)no1 [Example 15, N-((4-(5-(1,1-difluoroethyl)-1,2,4-oxadiazol-3-yl)bicyclo[2.2.2]octan-1-yl)methyl)-3-hydroxy-3-(trifluoromethyl)-N-(3-(trifluoromethyl)phenyl)cyclobutane-1-carboxamide]
17 | 315 | CC(F)(F)c1nc(C23CCC(CN(C(=O)C4CCC(F)(F)CC4)c4cccc(C(F)(F)F)c4)(CC2)CC3)no1 [Example 16, N-((4-(5-(1,1-difluoroethyl)-1,2,4-oxadiazol-3-yl)bicyclo[2.2.2]octan-1-yl)methyl)-4,4-difluoro-N-(3-(trifluoromethyl)phenyl)cyclohexane-1-carboxamide]
18 | 149 | COc1cc(N(CC23CCC(c4noc(C(C)(F)F)n4)(CC2)CC3)C(=O)C23CC(F)(C2)C3)ccn1 [Example 17, N-((4-(5-(1,1-difluoroethyl)-1,2,4-oxadiazol-3-yl)bicyclo[2.2.2]octan-1-yl)methyl)-3-fluoro-N-(2-methoxypyridin-4-yl)bicyclo[1.1.1]pentane-1-carboxamide]
19 | 1560 | CC(F)(F)c1nc(C23CCC(CN(C(=O)C45CC(F)(C4)C5)c4cccc(S(=O)(=O)NC5CC5)c4)(CC2)CC3)no1 [Example 18, N-(3-(N-cyclopropylsulfamoyl)phenyl)-N-((4-(5-(1,1-difluoroethyl)-1,2,4-oxadiazol-3-yl)bicyclo[2.2.2]octan-1-yl)methyl)-3-fluorobicyclo[1.1.1]pentane-1-carboxamide]
20 | 4000 | CC(F)(F)c1nc(C23CCC(CN(c4cccc(S(=O)(=O)NC5CC5)c4)C(=O)[C@H]4C[C@](O)(C(F)(F)F)C4)(CC2)CC3)no1 [Example 19, (1S,3S)-N-(3-(N-cyclopropylsulfamoyl)phenyl)-N-((4-(5-(1,1-difluoroethyl)-1,2,4-oxadiazol-3-yl)bicyclo[2.2.2]octan-1-yl)methyl)-3-hydroxy-3-(trifluoromethyl)cyclobutane-1-carboxamide]
